Reference: patent US20250230193A1, “CYCLIC COMPOUND HAVING SELECTIVE KRAS INHIBITORY EFFECT ON HRAS AND NRAS” (CHUGAI SEIYAKU KABUSHIKI KAISHA, priority 2022, published 2025)

How the values were obtained:
[1] = target: GDP-bound HRAS wild-type protein (Homo sapiens, UniProt P01112); experiment: Binding to HRAS by surface plasmon resonance (SPR), Single Cycle Kinetics; settings: SPR; KD ratio class
[2] = target: GDP-bound NRAS wild-type protein (Homo sapiens, UniProt P01111); experiment: Binding to NRAS by surface plasmon resonance (SPR), Single Cycle Kinetics; settings: SPR; KD ratio class
[3] = test system: human lung cancer strain NCI-H441; experiment: cells; settings: NCI-H441, 96 h, read-out: NCI-H441 IC50 (nM)

GDP-bound NRAS wild-type protein, sequence (P01111 whole entry): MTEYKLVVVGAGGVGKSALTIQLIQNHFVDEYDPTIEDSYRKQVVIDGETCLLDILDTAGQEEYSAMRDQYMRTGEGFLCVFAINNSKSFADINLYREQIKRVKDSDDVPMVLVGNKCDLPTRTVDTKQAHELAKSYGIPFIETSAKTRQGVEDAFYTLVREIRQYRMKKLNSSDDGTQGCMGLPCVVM
GDP-bound HRAS wild-type protein, sequence (P01112 whole entry): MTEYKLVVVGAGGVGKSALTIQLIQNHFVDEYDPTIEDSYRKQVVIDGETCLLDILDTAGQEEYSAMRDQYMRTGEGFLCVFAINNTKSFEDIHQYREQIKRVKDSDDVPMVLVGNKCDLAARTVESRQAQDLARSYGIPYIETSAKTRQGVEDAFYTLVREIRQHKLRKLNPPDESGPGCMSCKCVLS

SMILES | HRAS/KRAS (ratio of KD value for GDP-bound HRAS wild-type protein to KD value for KRAS) [1] | NRAS/KRAS (ratio of KD value for GDP-bound NRAS wild-type protein to KD value for KRAS) [2] | IC50 [3] [nM]
CCO[C@@H]1C[C@H]2C(=O)NC3(CCC3)C(=O)N(C)[C@@H](C3CCCC3)C(=O)N(C)[C@H](C(=O)N3CCOCC3)CC(=O)N(C)[C@@H](CC)C(=O)N[C@@H]([C@@H](C)CC)C(=O)N(C)CC(=O)N(C)[C@H]3CC[C@@H](C)CN(C3=O)[C@@H](Cc3ccc(C(F)(F)F)cc3)C(=O)N(C)CC(=O)N[C@@H](CCc3ccc(C(F)(F)F)c(Cl)c3)C(=O)N2C1 [PP1378] | C (A compound having a KD ratio of 0.1 or more and less than 3 is denoted as C) | B (a compound having 3 or more and less than 10 is denoted as B) | 6.6
CCO[C@@H]1C[C@H]2C(=O)NC3(CCC3)C(=O)N(C)[C@@H](C(CC)CC)C(=O)N(C)[C@H](C(=O)N3CCOCC3)CC(=O)N(C)[C@@H](CC3CC3)C(=O)N[C@@H]([C@@H](C)CC)C(=O)N(C)CC(=O)N(C)[C@H]3C/C=C\CCN(C3=O)[C@@H](Cc3ccc(F)cc3C)C(=O)N(C)CC(=O)N[C@@H](CCc3cc(F)c(C(F)(F)F)c(F)c3)C(=O)N2C1 [PP1526] | A (a compound having 10 or more and less than 20 is denoted as A) | A (a compound having 10 or more and less than 20 is denoted as A) | 118
CCO[C@@H]1C[C@H]2C(=O)NC3(CCC3)C(=O)N(C)[C@@H](C3CCCC3)C(=O)N(C)[C@H](C(=O)N(C)C)CC(=O)N(C)[C@@H](CC(C)C)C(=O)N[C@@H]([C@@H](C)CC)C(=O)N(C)CC(=O)N(C)[C@H]3C/C=C\CCN(C3=O)[C@@H](Cc3ccc(F)cc3)C(=O)N(C)CC(=O)N[C@@H](CCc3ccc(Cl)c(Cl)c3)C(=O)N2C1 [PP1482] | B (a compound having 3 or more and less than 10 is denoted as B) | A (a compound having 10 or more and less than 20 is denoted as A) | 76.4
CCO[C@@H]1C[C@H]2C(=O)NC3(CCC3)C(=O)N(C)[C@@H](C3CCCC3)C(=O)N(C)[C@H](C(=O)N3CCOCC3)CC(=O)N(C)[C@@H](CC3CCCC3)C(=O)N[C@@H]([C@@H](C)CC)C(=O)N(C)CC(=O)N(C)[C@H]3C/C=C\CCN(C3=O)[C@@H](Cc3ccc(C(F)(F)F)cc3)C(=O)N(C)CC(=O)N[C@@H](CCc3cc(F)c(C(F)(F)F)c(F)c3)C(=O)N2C1 [PP1393] | A (a compound having 10 or more and less than 20 is denoted as A) | A (a compound having 10 or more and less than 20 is denoted as A) | 18.2
CCO[C@@H]1C[C@H]2C(=O)NC3(CCCC3)C(=O)N(C)[C@@H](C3CCCC3)C(=O)N(C)[C@H](C(=O)N(C)C)CC(=O)N(C)[C@@H](CC)C(=O)N[C@@H]([C@@H](C)CC)C(=O)N(C)CC(=O)N(C)[C@H]3CC[C@@H](C)CN(C3=O)[C@@H](Cc3ccc(C(F)(F)F)cc3)C(=O)N(C)CC(=O)N[C@@H](CCc3cc(F)c(C(F)(F)F)c(F)c3)C(=O)N2C1 [PP1370] | C (A compound having a KD ratio of 0.1 or more and less than 3 is denoted as C) | C (A compound having a KD ratio of 0.1 or more and less than 3 is denoted as C) | 2.3
CCCC[C@H]1C(=O)N[C@@H]([C@@H](C)CC)C(=O)N(C)CC(=O)N(C)[C@H]2C/C=C\CCN(C2=O)[C@@H](Cc2ccc(C(F)(F)F)cc2)C(=O)N(C)CC(=O)N[C@@H](CCc2ccc(C(F)(F)F)c(OC)c2)C(=O)N2C[C@H](OCC)C[C@H]2C(=O)NC2(CC(C)(C)C2)C(=O)N(C)[C@@H](C2CCCC2)C(=O)N(C)[C@H](C(=O)N(C)C)CC(=O)N1C [PP1561] | B (a compound having 3 or more and less than 10 is denoted as B) | A (a compound having 10 or more and less than 20 is denoted as A) | 2.7
CCC[C@H]1C(=O)N[C@@H]([C@@H](C)CC)C(=O)N(C)CC(=O)N(C)[C@H]2C/C=C\CCN(C2=O)[C@@H](Cc2ccc(C(F)(F)F)cc2)C(=O)N(C)CC(=O)N[C@@H](CCc2ccc(C(F)(F)F)c(OC)c2)C(=O)N2C[C@H](OCC)C[C@H]2C(=O)NC2(CC(C)(C)C2)C(=O)N(C)[C@@H](C2CCCC2)C(=O)N(C)[C@H](C(=O)N(C)C)CC(=O)N1C [PP1560] | B (a compound having 3 or more and less than 10 is denoted as B) | A (a compound having 10 or more and less than 20 is denoted as A) | 1.8
CCO[C@@H]1C[C@H]2C(=O)NC3(CCC3)C(=O)N(C)[C@@H](C3CCCC3)C(=O)N(C)[C@H](C(=O)N3CCOCC3)CC(=O)N(C)[C@@H](CC3CCCCC3)C(=O)N[C@@H]([C@@H](C)CC)C(=O)N(C)CC(=O)N(C)[C@H]3C/C=C\CCN(C3=O)[C@@H](Cc3ccc(C(F)(F)F)cc3)C(=O)N(C)CC(=O)N[C@@H](CCc3cc(F)c(C(F)(F)F)c(F)c3)C(=O)N2C1 [PP1418] | A (a compound having 10 or more and less than 20 is denoted as A) | AA (a compound having 20 or more is denoted as AA) | 29.9
CCC[C@H]1C(=O)N[C@@H]([C@@H](C)CC)C(=O)N(C)CC(=O)N(C)[C@H]2C/C=C\CCN(C2=O)[C@@H](Cc2ccc(C(F)(F)F)cc2)C(=O)N(C)CC(=O)N[C@@H](CCc2ccc(Cl)c(Cl)c2)C(=O)N2C[C@H](OCC)C[C@H]2C(=O)NC2(CCC2)C(=O)N(C)[C@@H](C2CCCC2)C(=O)N(C)[C@H](C(=O)N(C)C)CC(=O)N1C [PP1250] | A (a compound having 10 or more and less than 20 is denoted as A) | AA (a compound having 20 or more is denoted as AA) | 18.7
CCO[C@@H]1C[C@H]2C(=O)NC3(CC(C)(C)C3)C(=O)N(C)[C@@H](C3CCCC3)C(=O)N(C)[C@H](C(C)C)CC(=O)N(C)[C@@H](CC)C(=O)N[C@@H]([C@@H](C)CC)C(=O)N(C)CC(=O)N(C)[C@H]3C/C=C\CCN(C3=O)[C@@H](Cc3ccc(C(F)(F)F)cc3)C(=O)N(C)CC(=O)N[C@@H](CCc3cc(F)c(C(F)(F)F)c(F)c3)C(=O)N2C1 [PP1588] | B (a compound having 3 or more and less than 10 is denoted as B) | B (a compound having 3 or more and less than 10 is denoted as B) | 24.2
CC[C@H](C)[C@@H]1NC(=O)[C@H](CC2CC2)N(C)C(=O)C[C@@H](C(=O)N(C)C)N(C)C(=O)[C@H](C2CCCC2)N(C)C(=O)C2(CCC2)NC(=O)[C@H](CCC(F)F)N(C)C(=O)[C@H](CCc2cc(F)c(C(F)(F)F)c(F)c2)NC(=O)CN(C)C(=O)[C@H](Cc2ccc(C(F)(F)F)cc2)N2CC/C=C\C[C@@H](C2=O)N(C)C(=O)CN(C)C1=O [PP1402] | A (a compound having 10 or more and less than 20 is denoted as A) | A (a compound having 10 or more and less than 20 is denoted as A) | 82
CCO[C@@H]1C[C@H]2C(=O)NC3(CCC3)C(=O)N(C)[C@@H](C(CC)CC)C(=O)N(C)[C@H](C(=O)N(C)C)CC(=O)N(C)[C@@H](CC(C)C)C(=O)N[C@@H]([C@@H](C)CC)C(=O)N(C)CC(=O)N(C)[C@H]3C/C=C\CCN(C3=O)[C@@H](CC3CCC(F)(F)CC3)C(=O)N(C)CC(=O)N[C@@H](CCc3cc(F)c(C(F)(F)F)c(F)c3)C(=O)N2C1 [PP1433] | A (a compound having 10 or more and less than 20 is denoted as A) | AA (a compound having 20 or more is denoted as AA) | 44.4
CCO[C@@H]1C[C@H]2C(=O)NC3(CCC3)C(=O)N(C)[C@@H](C3CCCC3)C(=O)N(C)[C@H](C(=O)N3CCCCC3)CC(=O)N(C)[C@@H](CC(C)C)C(=O)N[C@@H]([C@@H](C)CC)C(=O)N(C)CC(=O)N(C)[C@H]3C/C=C\CCN(C3=O)[C@@H](Cc3ccc(C(F)(F)F)cc3)C(=O)N(C)CC(=O)N[C@@H](CCc3cc(F)c(C(F)(F)F)c(F)c3)C(=O)N2C1 [PP1290] | A (a compound having 10 or more and less than 20 is denoted as A) | AA (a compound having 20 or more is denoted as AA) | 15.4
CCCCCC[C@H]1C(=O)N[C@@H]([C@@H](C)CC)C(=O)N(C)CC(=O)N(C)[C@H]2C/C=C\CCN(C2=O)[C@@H](Cc2ccc(C(F)(F)F)cc2)C(=O)N(C)CC(=O)N[C@@H](CCc2ccc3sccc3c2)C(=O)N2C[C@H](OCC)C[C@H]2C(=O)NC2(CCC2)C(=O)N(C)[C@@H](C(CC)CC)C(=O)N(C)[C@H](C(=O)N(C)C)CC(=O)N1C [PP1226] | A (a compound having 10 or more and less than 20 is denoted as A) | AA (a compound having 20 or more is denoted as AA) | 106
CCO[C@@H]1C[C@H]2C(=O)NC3(CCC3)C(=O)N(C)[C@@H](C3CCCC3)C(=O)N(C)[C@H](C)CC(=O)N(C)[C@@H](CC(C)C)C(=O)N[C@@H]([C@@H](C)CC)C(=O)N(C)CC(=O)N(C)[C@H]3C/C=C\CCN(C3=O)[C@@H](Cc3ccc(C)cc3)C(=O)N(C)CC(=O)N[C@@H](CCc3cc(F)c(C(F)(F)F)c(F)c3)C(=O)N2C1 [PP1417] | B (a compound having 3 or more and less than 10 is denoted as B) | B (a compound having 3 or more and less than 10 is denoted as B) | 18.4
